{"source": "paper PMC12355554", "about": "“Development of novel mitochondrial pyruvate carrier inhibitors for breast cancer treatment” (The Journal of Biological Chemistry, 2025)", "key": {"[1]": {"test_system": "glutamate-driven respiration in 4T1 cells", "assay": "Seahorse glutamate-driven respiration in permeabilized 4T1 cells", "format": "cell-based, murine", "settings": "Glu/Mal, candidate compounds 1 μM", "excerpt": "Although our initial experiments and previous literature illustrate the ability of the candidate compounds to inhibit Pyr-driven respiration, we sought to investigate the ability of candidate compounds to inhibit respiration fueled by other metabolic substrates, glutamate and succinate (Fig. 2). Glutamate, similar to Pyr oxidation, results in NADH equivalents that fuel complex I-mediated respiration, and succinate metabolism offers FADH2 for electrons in complex II-driven respiratory processes. […] To further validate the mode of action of the candidate compounds, a series of similar Seahorse experiments were employed (Fig. 2, A–C). In these experiments, 4T1 cells were first permeabilized and were then offered metabolic substrates Pyr (Pyr/Mal; Fig. 2A), glutamate (Glu/Mal, Fig. 2B), or succinate (Fig. 2C), and the resulting OCR was observed. As described previously, Mal and DCA were included in the substrate milieu of glutamate respiration experiments. […] To validate that inhibition of Pyr respiration is due to mitochondrial Pyr uptake and not other Pyr-processing enzymes (i.e., Pyr dehydrogenase), a parallel experiment using methyl pyruvate (MePyr) was employed (Fig. 2, E and F). MePyr is permeable to the mitochondrial membranes, where in the matrix, mitochondrial esterase hydrolysis activity provides Pyr.\nPermeabilized cell assays were performed using rPFO as described previously. 4T1 cells were seeded (20,000 cells/well) onto Seahorse XFe96 well plates and incubated overnight in growth media at 37 °C and 5% CO2 for adherence. On the day of the assay, growth media were aspirated and replaced with MAS buffer (70 mM sucrose, 220 mM mannitol, 10 mM potassium phosphate monobasic, 5 mM magnesium chloride, 2 mM Hepes, and 1 mM EGTA) after 3X rinse of growth media to remove serum and endogenous metabolic substrates, and incubated at 37 °C in a non-CO2 incubator. Respective inhibitor and substrate milieu's were prepared in MAS buffer for port injections A–D at 8X, 9X, 10X, and 11X the target cell concentrations to account for intrinsic dilution factor of in situ injections of each port. […] Final substrate concentrations for specific tests were as follows: (5 mM Pyr , 0.5 mM Mal, 2 mM DCA; 10 mM glutamate, 0.5 mM Mal, 2 mM DCA; 10 mM succinate, 2 μM rotenone; 20 mM methyl Pyr, 5 mM Pyr, 0.5 mM Mal, and 2 mM DCA). ATP rate assays and mitochondrial stress tests were performed according to the manufacturer's (Agilent) instructions."}, "MDA-MB-231 [2]": {"test_system": "MDA-MB-231", "assay": "MTT cell proliferation inhibition assay, MDA-MB-231", "format": "cell-based", "settings": "Homo sapiens, 72 h, 3 days", "protocol": "(§1) Confluent cell cultures were treated with trypsin and resuspended at 5 × 10^4 cells/ml. To a 96-well plate, 100 μl of the 5 × 10^4 cells/ml solution were added and allowed to incubate at 37 °C, 5% CO2 for 24 h. Compounds were then added and allowed to incubate for 3 days. […] Following the 4-h incubation with 3-(4,5-dimethylthiazol-2-yl)-2,5-diphenyltetrazolium bromide, 100 μl of SDS (0.1 g/ml, 0.01 N HCl) was added, and 96-well plates were allowed to incubate for an additional 4 h. […] Treatment absorbances are taken as percentages of the average untreated absorbances and plotted against log(concentration) in GraphPad Prism 10 (GraphPad Software, Inc) to generate effective concentration values where 50% of the cells are not proliferating (EC50)."}, "4T1 [3]": {"test_system": "4T1", "assay": "MTT cell proliferation inhibition assay, 4T1", "format": "cell-based, murine", "settings": "Mus musculus, 72 h, 3 days, average ± SEM", "protocol": "as §1"}, "MDA-MB-231 [4]": {"test_system": "MDA-MB-231", "assay": "Sulforhodamine B cell proliferation inhibition assay, MDA-MB-231", "format": "cell-based", "settings": "Homo sapiens, 72 h", "protocol": "(§2) Cells were seeded (3 × 10^4 cells/well) in 48-well plates and incubated overnight (37 °C, 5% CO2). Test compounds were then exposed to cells in duplicate in serial dilution fashion and were incubated for an additional 72 h (37 °C, 5% CO2). Media were then aspirated, and cells were washed three times with cold PBS and left overnight to dry fix. […] Dyed cells were then lysed with Tris (10 mM, pH 10), and absorbance readings were recorded at 540 nm of each well. Treatment absorbances are taken as percentages of the average untreated absorbances and plotted against log(concentration) in GraphPad Prism 10 to generate effective concentration values where 50% of the cells are not proliferating (EC50)."}, "4T1 [5]": {"test_system": "4T1", "assay": "Sulforhodamine B cell proliferation inhibition assay, 4T1", "format": "cell-based, murine", "settings": "Mus musculus, 72 h, average ± SEM", "protocol": "as §2"}, "67NR": {"test_system": "67NR", "assay": "Sulforhodamine B cell proliferation inhibition assay, 67NR", "format": "cell-based, murine", "settings": "Mus musculus, 72 h, average ± SEM", "protocol": "as §2"}, "[6]": {"assay": "Intrinsic CL in human liver microsomes", "format": "in vitro ADME"}, "[7]": {"assay": "Maximum tolerated dose study, oral dosing, 21 days", "format": "in vivo, severe combined immunodeficient mice"}, "[8]": {"test_system": "MPC or MCT expression levels", "assay": "Western blotting of MPC and MCT expression", "format": "cell-based", "settings": "Western blot", "protocol": "After denaturation at 95 °C for 10 min in radioimmunoprecipitation buffer, protein concentration was determined and equilibrated using the bicinchoninic acid assay (ThermoScientific), and 20 μg of protein was separated by electrophoresis in 4 to 12% polyacrylamide gels. Proteins were electrophoretically transferred to polyvinylidene fluoride membranes for 90 min at 100 V and stained with Ponceau to verify transfer quality and equal protein loading. […] Santa Cruz, catalog no.: sc-365501, 1:1000 dilution; MCT4, Santa Cruz, catalog no.: sc-376140, 1:1000 dilution; MPC1, Cell Signaling, 1:1000 dilution, catalog no.: 14462; MPC2, Cell Signaling, 1:1000 dilution, catalog no.: 46141; […] TBST, 0.5% nonfat milk protein). Membranes were rinsed three times with TBST and incubated with the respective secondary goat antimouse IgG (1:10,000 dilution) or goat anti-rabbit IgG (1:10,000 dilution) horseradish peroxidase–conjugated antibodies (Cell Signaling). Membranes were again washed three times with TBST and exposed to SuperSignal 60 West luminol enhancer and stable peroxide solution (ThermoScientific) for 2 min. Chemiluminescent images were obtained using a LicorFC imager. Images shown are representative of two separate experiments obtained from independent biological samples."}, "physchem": {"assay": "physchem", "settings": "water", "text": "Starting with the carboxylic acid 24, various salt forms were generated to increase the water solubility."}, "4T1 tumor": {"test_system": "4T1 tumor", "assay": "Tumor efficacy study in a 4T1 syngraft", "settings": "5 mg/kg daily for 11 days"}, "67NR tumor": {"test_system": "67NR tumor", "assay": "Tumor efficacy study in a 67NR syngraft", "settings": "14-day treatment"}, "[9]": {"test_system": "MPC1 and MPC2 KO 4T1 cells", "assay": "Pyr-driven respiration in CRISPR-Cas9 MPC1/MPC2 KO 4T1 cells", "settings": "permeabilized MPC1/MPC2 KO 4T1 cells, FCCP stimulated"}}, "note": "“Also recorded” adds a separate entry of the source."}
{"molecule": "CN(Cc1ccc(C(F)(F)F)cc1)c1ccc2cc(C(=O)O)c(=O)oc2c1.NC(CO)(CO)CO", "note": "[C5, 1,3-dihydroxy-2-(hydroxymethyl)propan-2-aminium 7-(methyl(4-(trifluoromethyl)benzyl)amino)-2-oxo-2H-chromene-3-carboxylate]", "values": [{"measurement": "effect on glutamate-driven respiration", "setting": "[1]", "value": "does not alter; also recorded: did not alter"}, {"measurement": "EC50", "setting": "MDA-MB-231 [2]", "value": "> 1000", "unit": "µM"}, {"measurement": "EC50", "setting": "4T1 [3]", "value": "23.4 ± 4.9", "unit": "µM"}, {"measurement": "EC50", "setting": "MDA-MB-231 [4]", "value": "> 1000", "unit": "µM"}, {"measurement": "EC50", "setting": "4T1 [5]", "value": "67.9 ± 7.3", "unit": "µM"}, {"measurement": "EC50", "setting": "67NR", "value": "94.7 ± 12.9", "unit": "µM"}, {"measurement": "increase in Clint compared with C3", "setting": "[6]; human liver microsomes", "value": "two-fold"}, {"measurement": "half-life", "setting": "[6]; human, liver microsomes, exceeding the experimental endpoints", "value": "> 2", "unit": "h"}, {"measurement": "MTD at 21 days", "setting": "[7]; female, BALB/c, mouse, in vivo, oral, daily for 21 days", "value": 40, "unit": "mg/kg"}, {"measurement": "changes in body weight or behavior", "setting": "[7]; oral 10, 20, 40 mg/kg daily for 21 days", "value": "not any significant changes"}, {"measurement": "effect on MPC or MCT expression levels", "setting": "[8]", "value": "does not alter"}, {"measurement": "solubility", "setting": "physchem", "value": 10000, "unit": "µg/mL"}, {"measurement": "mouse body weight", "setting": "4T1 tumor", "value": "remained constant"}, {"measurement": "reduction in tumor mass compared with vehicle", "setting": "4T1 tumor; BALB/c", "value": "~41", "unit": "%"}, {"measurement": "reduction in tumor volume compared with vehicle", "setting": "4T1 tumor; BALB/c", "value": "~20", "unit": "%"}, {"measurement": "mouse body weight", "setting": "67NR tumor", "value": "remained stable"}, {"measurement": "effects on Pyr-driven maximal respiration in MPC-KO lines", "setting": "[9]", "value": "largely diminished"}]}
